Measurements: US8586579B2, “Anellated pyridine compounds” (Hoffmann-La Roche Inc., priority 2010, dated 2013)
Like-named read-outs stand apart in the source and are kept apart here.

How the values were obtained:
[1] = target: human D3 receptor (Homo sapiens (Human), UniProt P35462); assay: Radioligand binding assay, [3H]-spiperone, human D3 receptor; settings: membranes of HEK293 EBNA cells expressing human D3; 0.5 nM [3H]-spiperone
How it was run: (§1)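 Membranes from transiently transfected HEK293 EBNA cells were incubated 1 h at RT with ten compound concentrations (10 μM-0.1 nM) and radioligand: 0.5 nM [3H]-spiperone for D3 (Tris/NaCl/Mg/Ca buffer, pH 7.4) or 1.1 nM [3H]-ketanserin for 5-HT2A (Tris/MgCl2/EGTA, pH 7.4).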

[2] = target: human 5-HT2A receptor (Homo sapiens (Human), UniProt P28223); assay: Radioligand binding assay, [3H]-ketanserin, human 5-HT2A receptor
human 5-HT2A receptor, sequence (P28223 whole entry): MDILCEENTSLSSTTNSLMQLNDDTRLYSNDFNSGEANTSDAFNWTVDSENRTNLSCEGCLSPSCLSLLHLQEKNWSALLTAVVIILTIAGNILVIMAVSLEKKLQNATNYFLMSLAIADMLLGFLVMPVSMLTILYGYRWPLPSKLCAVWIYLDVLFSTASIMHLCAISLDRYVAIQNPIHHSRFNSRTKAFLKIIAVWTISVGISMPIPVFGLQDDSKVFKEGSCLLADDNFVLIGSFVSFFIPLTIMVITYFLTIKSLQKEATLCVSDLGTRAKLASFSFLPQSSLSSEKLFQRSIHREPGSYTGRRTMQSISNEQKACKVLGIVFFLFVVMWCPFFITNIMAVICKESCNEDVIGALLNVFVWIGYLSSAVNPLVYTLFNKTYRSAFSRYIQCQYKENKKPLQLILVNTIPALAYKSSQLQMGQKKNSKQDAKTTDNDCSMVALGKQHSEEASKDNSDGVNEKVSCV
How it was run: as §1

[3] = target: human D2 receptor (Homo sapiens (Human), UniProt P14416); assay: Radioligand binding assay, [3H]-spiperone, human D2 receptor; settings: membranes of HEK293 EBNA cells expressing human D2; 0.7 nM [3H]-spiperone
human D2 receptor, sequence (P14416 whole entry): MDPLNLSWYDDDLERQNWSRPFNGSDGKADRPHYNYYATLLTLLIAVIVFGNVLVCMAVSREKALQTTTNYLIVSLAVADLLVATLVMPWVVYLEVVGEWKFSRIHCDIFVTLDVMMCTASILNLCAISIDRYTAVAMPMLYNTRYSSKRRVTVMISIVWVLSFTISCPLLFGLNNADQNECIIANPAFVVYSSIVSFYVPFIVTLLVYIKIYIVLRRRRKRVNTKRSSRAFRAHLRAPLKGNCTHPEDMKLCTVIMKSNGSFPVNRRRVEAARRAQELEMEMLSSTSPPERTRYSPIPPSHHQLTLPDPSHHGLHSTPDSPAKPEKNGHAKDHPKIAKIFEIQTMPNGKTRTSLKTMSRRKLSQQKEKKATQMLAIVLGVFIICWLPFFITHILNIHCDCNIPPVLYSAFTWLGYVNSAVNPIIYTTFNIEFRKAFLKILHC
How it was run: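 Membranes from HEK293 EBNA cells transiently expressing human D2 were incubated 1 h at RT with ~0.7 nM [3H]-spiperone and ten compound concentrations (10 μM–0.1 nM) in Tris buffer with NaCl, MgCl2, KCl, CaCl2, EDTA, pH 7.4.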

[4] = membranes of HEK293 EBNA cells expressing human 5-HT2A, 1.1 nM [3H]-ketanserin

human D3 receptor, sequence (P35462 whole entry): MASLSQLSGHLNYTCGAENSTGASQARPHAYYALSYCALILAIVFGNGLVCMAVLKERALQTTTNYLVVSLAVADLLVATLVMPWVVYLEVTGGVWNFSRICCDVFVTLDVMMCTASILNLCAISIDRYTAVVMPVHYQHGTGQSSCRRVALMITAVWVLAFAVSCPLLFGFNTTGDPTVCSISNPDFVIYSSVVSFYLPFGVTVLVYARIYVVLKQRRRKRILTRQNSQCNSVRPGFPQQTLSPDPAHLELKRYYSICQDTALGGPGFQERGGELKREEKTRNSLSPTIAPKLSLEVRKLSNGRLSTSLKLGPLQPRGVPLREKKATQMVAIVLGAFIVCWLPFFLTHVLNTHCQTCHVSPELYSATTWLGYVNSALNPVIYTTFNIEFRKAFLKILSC

| Compound | Ki [1] [nM] | Ki [2, 4] [nM] | Ki [3] [nM] | melting point [°C] | Ki [2] [nM] |
| --- | --- | --- | --- | --- | --- |
| O=C(N[C@H]1CC[C@H](CCN2CCN(c3nccc4c3CCO4)CC2)CC1)C1CCOCC1 [Example 33, trans-N-(4-{2-[4-(2,3-Dihydrofuro[3,2-c]pyridin-4-yl)-piperazin-1-yl]-ethyl}-cyclohexyl)-tetrahydro-2H-pyran-4-carboxamide] | 38.2 | 5.9 | 504 | 263 |  |
| Cc1cnc(N2CCN(CC[C@H]3CC[C@H](NC(=O)CC4CCOCC4)CC3)CC2)c2c1OCC2 [Example 110, trans-N-(4-{2-[4-(7-Methyl-2,3-dihydro-furo[3,2-c]pyridin-4-yl)-piperazin-1-yl]-ethyl}-cyclohexyl)-2-(tetrahydro-pyran-4-yl)-acetamide] | 69.4 | 44 | 2950 | 199 |  |
| Cc1cc2occc2c(N2CCN(CC[C@H]3CC[C@H](NC(=O)CC4CCOCC4)CC3)CC2)n1 [Example 98, trans-N-(4-{2-[4-(6-Methyl-furo[3,2-c]pyridin-4-yl)-piperazin-1-yl]-ethyl}-cyclohexyl)-2-(tetrahydro-pyran-4-yl)-acetamide] | 9.45 | 75.9 | 641 | 212.5 |  |
| O=C(N[C@H]1CC[C@H](CCN2CCN(c3nccc4c3CCO4)CC2)CC1)c1ccc(N2CCOCC2)cc1 [Example 57, trans-N-(4-{2-[4-(2,3-Dihydro-furo[3,2-c]pyridin-4-yl)-piperazin-1-yl]-ethyl}-cyclohexyl)-4-morpholin-4-yl-benzamide] | 16.9 | 4.52 | 867 | 228.5 |  |
| O=C(N[C@H]1CC[C@H](CCN2CCN(c3nccc4c3CCO4)CC2)CC1)c1ccc(-c2ccccc2)cc1 [Example 134, Biphenyl-4-carboxylic acid trans-(4-{2-[4-(2,3-dihydro-furo[3,2-c]pyridin-4-yl)-piperazin-1-yl]-ethyl}-cyclohexyl)-amide] | 18.6 | 23.4 | 1130 | 232 |  |
| O=C(N[C@H]1CC[C@H](CCN2CCN(c3nccc4c3CCO4)CC2)CC1)c1ccc(N2CCS(=O)(=O)CC2)cc1 [Example 125, trans-N-(4-{2-[4-(2,3-Dihydro-furo[3,2-c]pyridin-4-yl)-piperazin-1-yl]-ethyl}-cyclohexyl)-4-(1,1-dioxo-1λ6-thiomorpholin-4-yl)-benzamide] | 14.4 | 16.6 | 117 | 261.5 |  |
| N#Cc1ccc(C(=O)N[C@H]2CC[C@H](CCN3CCN(c4nccc5c4CCO5)CC3)CC2)cc1 [Example 117, trans-4-Cyano-N-(4-{2-[4-(2,3-dihydro-furo[3,2-c]pyridin-4-yl)-piperazin-1-yl]-ethyl}-cyclohexyl)-benzamide] | 28 | 13 | 381 | 243.5 |  |
| O=CN[C@H]1CC[C@H](CCN2CCN(c3nccc4c3CCO4)CC2)CC1 [Example 83, trans-N-(4-{2-[4-(2,3-Dihydro-furo[3,2-c]pyridin-4-yl)-piperazin-1-yl]-ethyl}-cyclohexyl)-formamide] | 28 | 23.5 | 837 | 170.5 |  |
| COCC(=O)N[C@H]1CC[C@H](CCN2CCN(c3nccc4c3CCO4)CC2)CC1 [Example 38, trans-N-(4-{2-[4-(2,3-Dihydrofuro[3,2-c]pyridin-4-yl)-piperazin-1-yl]-ethyl}-cyclohexyl)-2-methoxyacetamide] | 45.4 |  | 1550 | 169.5 | 11 |
| O=C(N[C@H]1CC[C@H](CCN2CCN(c3nccc4c3CCO4)CC2)CC1)c1ccc(N2CCCCC2)cc1 [Example 56, trans-N-(4-{2-[4-(2,3-Dihydro-furo[3,2-c]pyridin-4-yl)-piperazin-1-yl]-ethyl}-cyclohexyl)-4-piperidin-1-yl-benzamide] | 44.3 |  | 5340 | 214.5 | 19.2 |
| CO[C@H]1CC[C@H](CC(=O)N[C@H]2CC[C@H](CCN3CCN(c4nccc5c4CCO5)CC3)CC2)C1 [Example 90, trans-N-(4-{2-[4-(2,3-Dihydro-furo[3,2-c]pyridin-4-yl)-piperazin-1-yl]-ethyl}-cyclohexyl)-2-((1S,3S)-3-methoxy-cyclopentyl)-acetamide] | 19.4 | 22.4 | 1290 | 241 |  |
| Cc1cc2c(c(N3CCN(CC[C@H]4CC[C@H](NC(=O)C5CCOCC5)CC4)CC3)n1)CCO2 [Example 101, Tetrahydro-pyran-4-carboxylic acid trans-(4-{2-[4-(6-methyl-2,3-dihydro-furo[3,2-c]pyridin-4-yl)-piperazin-1-yl]-ethyl}-cyclohexyl)-amide] | 34.6 | 58.5 | 1950 | 234.5 |  |
| C[C@]1(O)CC[C@H](C(=O)N[C@H]2CC[C@H](CCN3CCN(c4nccc5c4CCO5)CC3)CC2)CC1 [Example 54, trans-4-Hydroxy-4-methyl-cyclohexanecarboxylic acid trans-(4-{2-[4-(2,3-dihydro-furo[3,2-c]pyridin-4-yl)-piperazin-1-yl]-ethyl}-cyclohexyl)-amide] | 51.4 | 12.6 | 506 | 171 |  |
| CC[C@H](O)CC(=O)N[C@H]1CC[C@H](CCN2CCN(c3nccc4c3CCO4)CC2)CC1 [Example 89, (S)-3-Hydroxy-pentanoic acid trans-(4-{2-[4-(2,3-dihydro-furo[3,2-c]pyridin-4-yl)-piperazin-1-yl]-ethyl}-cyclohexyl)-amide] | 20 |  | 887 | 158 | 30 |
| O=C(N[C@H]1CC[C@H](CCN2CCN(c3nccc4c3CCO4)CC2)CC1)c1ccc(Cl)cc1 [Example 46, trans-4-Chloro-N-(4-{2-[4-(2,3-dihydro-furo[3,2-c]pyridin-4-yl)-piperazin-1-yl]-ethyl}-cyclohexyl)-benzamide] | 13.2 |  | 289 | 226.5 | 14.8 |
| O=C(N[C@H]1CC[C@H](CCN2CCN(c3nccc4c3CCO4)CC2)CC1)C1(O)CCC1 [Example 123, 1-Hydroxy-cyclobutanecarboxylic acid trans-(4-{2-[4-(2,3-dihydro-furo[3,2-c]pyridin-4-yl)-piperazin-1-yl]-ethyl}-cyclohexyl)-amide] | 131 | 9.8 | 959 | 177.5 |  |
| CC(C)CCC(=O)N[C@H]1CC[C@H](CCN2CCN(c3nccc4c3CCO4)CC2)CC1 [Example 93, 4-Methyl-pentanoic acid trans-(4-{2-[4-(2,3-dihydro-furo[3,2-c]pyridin-4-yl)-piperazin-1-yl]-ethyl}-cyclohexyl)-amide] | 22.7 | 24.6 | 1280 | 182.5 |  |
| O=C(N[C@H]1CC[C@H](CCN2CCN(c3nccc4c3CCO4)CC2)CC1)c1ccc2c(c1)OCO2 [Example 121, Benzo[1,3]dioxole-5-carboxylic acid trans-(4-{2-[4-(2,3-dihydro-furo[3,2-c]pyridin-4-yl)-piperazin-1-yl]-ethyl}-cyclohexyl)-amide] | 21.8 | 17.6 | 3370 | 243.5 |  |
| CN1CCN(c2ccc(C(=O)N[C@H]3CC[C@H](CCN4CCN(c5nccc6c5CCO6)CC4)CC3)cc2)CC1 [Example 118, trans-N-(4-{2-[4-(2,3-Dihydro-furo[3,2-c]pyridin-4-yl)-piperazin-1-yl]-ethyl}-cyclohexyl)-4-(4-methyl-piperazin-1-yl)-benzamide] | 14.7 | 4.51 | 180 | 236 |  |
| O=C(N[C@H]1CC[C@H](CCN2CCN(c3nccc4c3CCO4)CC2)CC1)C1CCC1 [Example 52, Cyclobutanecarboxylic acid trans-(4-{2-[4-(2,3-dihydro-furo[3,2-c]pyridin-4-yl)-piperazin-1-yl]-ethyl}-cyclohexyl)-amide] | 15.7 | 10.1 | 555 | 202 |  |
| CC#CC(=O)N[C@H]1CC[C@H](CCN2CCN(c3nccc4c3CCO4)CC2)CC1 [Example 82, But-2-ynoic acid trans-(4-{2-[4-(2,3-dihydro-furo[3,2-c]pyridin-4-yl)-piperazin-1-yl]-ethyl}-cyclohexyl)-amide] | 17.2 | 12.2 | 426 | 193 |  |
| O=C(CC1C[C@H](O)CO1)N[C@H]1CC[C@H](CCN2CCN(c3nccc4c3CCO4)CC2)CC1 (stereo in doubt) [Example 91, trans-N-(4-{2-[4-(2,3-Dihydro-furo[3,2-c]pyridin-4-yl)-piperazin-1-yl]-ethyl}-cyclohexyl)-2-((S)-4-hydroxy-tetrahydro-furan-2-yl)-acetamide] | 14.2 | 22.5 | 926 | 155 |  |
| CO[C@H](C)C(=O)N[C@H]1CC[C@H](CCN2CCN(c3nccc4c3CCO4)CC2)CC1 [Example 135, trans-(R)—N-(4-{2-[4-(2,3-Dihydro-furo[3,2-c]pyridin-4-yl)-piperazin-1-yl]-ethyl}-cyclohexyl)-2-methoxy-propionamide] | 109 | 7 | 680 | 159 |  |
